# Experimental data as given in patent EP4186514A1, “PHARMACEUTICAL COMPOSITION FOR PREVENTING OR TREATING CHOLANGITIS OR LIVER DISEASE CAUSED BY CHOLANGITIS COMPRISING ADENOSINE DERIVATIVE” (Future Medicine Co., Ltd., priority 2021, dated 2023).
# Key:
# [1] = tested on: histidine-requiring Salmonella (strains TA98, TA100, TA1535 and TA1537) and tryptophan-requiring Escherichia coli (strain WP2uvrA (pKM101)); format: cell-based
# Procedure: In order to test the genotoxicity of the compound of the formula A, the gene mutagenicity of the compound of the formula A was evaluated in the presence and absence of metabolic activation by using histidine-requiring Salmonella (strains TA98, TA100, TA1535 and TA1537) and tryptophan-requiring Escherichia coli (strain WP2uvrA (pKM101)).
# [2] = tested on: BDL mouse model; assay: Efficacy in bile duct ligation (BDL) mouse model of cholangitis and liver disease; format: in vivo, C57BL/6 mice; settings: for Hyaluronic acid values reduced: serum ELISA, compared to BDL control group (G2)
# Procedure: After 23 C57BL/6 mice were prepared and subjected to quarantine and acclimation, a bile duct ligation (BDL) surgery and a sham surgery were performed by dividing the animals into groups.
# The BDL rodent model is one of the most commonly used methods to induce obstructive cholestatic injury (Tag, C. G et al., Bile Duct Ligation in Mice: Induction of Inflammatory Liver Injury and Fibrosis by Obstructive Cholestasis, J. Vis. Exp. (96), e52438, doi: 10.3791/52438 (2015)). The BDL model induces liver fibrosis and inflammation by causing obstructive cholestasis, and since such symptoms are generally observed in patients with PBC after stage II, the corresponding model may adequately reflect an important aspect of PBC pathology. The advantages of the BDL model are technical validity, reproducibility, and the short time it takes to reach the pathogenomonic status of human portal hypertension.
# The surgery day was set to day 0, and the test material was orally administered once a day for 2 weeks from day 1 to day 14. The dose was 10 mL/kg based on the body weight measured before administration. As a test material, a compound of formula A mixed with 0.5% methylcellulose (MC), which is a vehicle, was used, and only the vehicle was used in the control.
# The treatment contents of each group are summarized as in the following Table 1.
# Blood was collected through the abdominal vein under respiratory anesthesia on day 14, and serum was isolated. After blood collection, liver tissue was collected and weighed, half of the left lateral lobe from the tissue was placed in a tube and immersed in liquid nitrogen, and the other half was fixed in neutral formalin. • Blood biochemical analysis: aspartate aminotransferase (AST), alanine aminotransferase (ALT), alkaline phosphatase (ALP), γ-glutamyl transpeptidase (GGT) and total bilirubin (T-BIL) were measured using a serum biochemical analyzer (Accute, Toshiba). In addition, after blood collection, the body weight was measured by collecting liver tissue. • mRNA expression: RNA was extracted using a portion of the left lateral lobe removed from the liver tissue, cDNA was synthesized using an RNase inhibitor (DR22-R10k, Solgent, Korea) and DiaStar ™ RT Kit, and qRT-PCR was performed using Power SYBR Green PCR Master Mix (Applied Biosystems by Thermo Fisher Scientific, USA).
# The following Table 2 lists sequences of primers of mouse Gapdh, Acta2(actin alpha 2 chain), Col1a1(proalpha1(I) chain) and tissue inhibitor of metalloproteinases-1 (Timp1) used for qRT-PCR.
# • Analysis of cytokine levels: TNF-α, IL-1β and hyaluronic acid levels in serum were measured using an ELISA kit. • Analysis of hydroxyproline: a portion of the left lateral lobe of liver tissue was extracted, and the hydroxyproline value of liver lysate was measured by a microplate reader (SpectraMax ABS Plus, Molecular Devices) using a hydroxyproline assay kit (Abcam).
# The experimental results are shown as mean ± SD, and the test material-administered group was compared with the vehicle control (BDL, G2). Statistical analysis was performed using one-way ANOVA followed by Fisher's least significant difference test using GraphPad Prism (version 5.01) and SPSS (version 24) software. P < 0.05 was considered statistically significant.
# [3] = Pharmacokinetic test in rats (Experimental Examples 3 and 4); format: in vivo; settings: male, SD, rat, plasma, po
# Procedure: In order to test the ADME properties of the adenosine derivative of the inventive concept after oral administration, pharmacokinetic properties of the compound of the formula A were measured in vivo.
# Intravenous administration was performed through a tube inserted into the femoral vein, and oral administration was performed using oral gavage.
# After the administration, the experimental animals' blood was taken at predetermined time intervals for 24 hours. Then, the blood was centrifuged to separate plasma. The plasma samples were pretreated with a suitable organic solvent, and then the concentration of the plasma samples was analyzed by LC-MS/MS. The blood concentration-time data of the compound of the formula A was analyzed using WinNonlin (Pharsight, USA), and graphs of the blood concentration-time data are shown in FIGS. 5 through 9. The results of noncompartmental pharmacokinetic parameters calculated from the blood concentration-time data are shown in Tables 5 through 9. In FIGS. 5 through 9, I.V. represents an intravenous administration group, P.O. represents an oral administration group, and the definition of each parameter in Tables 5 through 9 is shown in Table 10.
# Thus, the adenosine derivative of the inventive concept is more suitable for oral administration than for intravenous administration.
# [4] = Plasma stability, rat plasma; format: in vitro ADME
# Procedure: (§1) In order to test the physicochemical properties of the adenosine derivative of the inventive concept, experiments were conducted on the compound of the formula A in vitro, and the results are shown in Table 3. Plasma stability and protein binding were measured using rat and human plasma.
# [5] = Kinetic solubility; format: physicochemical; settings: listed as compound of the formula A
# Procedure: as §1
# [6] = Equilibrium solubility; format: physicochemical; settings: listed as compound of the formula A
# Procedure: as §1
# [7] = target: T1, A2A adenosine receptor (Homo sapiens, UniProt P29274); assay: Radioligand binding affinity, A2A adenosine receptor ([3H]CGS-21680, HEK 293 cell); settings: percentage inhibition of specific binding of 10 µM
# T1 construct: expressed in transfected cells; host or cells: HEK 293 cell
# T1 sequence (P29274 whole entry): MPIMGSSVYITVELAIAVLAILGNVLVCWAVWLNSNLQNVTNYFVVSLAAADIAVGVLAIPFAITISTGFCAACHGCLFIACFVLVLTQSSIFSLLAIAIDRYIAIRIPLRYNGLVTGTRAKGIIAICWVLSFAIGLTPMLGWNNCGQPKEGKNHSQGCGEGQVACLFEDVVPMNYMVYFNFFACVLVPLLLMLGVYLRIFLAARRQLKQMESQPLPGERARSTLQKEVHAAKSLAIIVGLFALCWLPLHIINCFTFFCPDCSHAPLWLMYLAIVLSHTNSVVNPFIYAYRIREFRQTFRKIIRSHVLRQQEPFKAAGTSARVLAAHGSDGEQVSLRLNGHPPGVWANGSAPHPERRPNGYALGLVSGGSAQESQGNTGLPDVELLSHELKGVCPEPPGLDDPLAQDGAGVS
# Procedure: The adenosine derivatives of the present invention were assayed for binding affinity and selectivity for A1, A2A and A3 receptors among human adenosine receptor (hAR) as follows.
# Adenosine deaminase was added alone or in combination with a radioactive ligand when cerebral meninges were incubated at 30° C. for 30 min. Each of the compounds synthesized in the examples was measured for IC50 at least 6 different concentrations, and the measurements were analyzed using SigmaPlot software to determine Ki values.
# [8] = tested on: rats; assay: Single-dose toxicity in rats; settings: summary Table 11
# Procedure: (§2) In order to test the single-dose toxicity of the compound of the formula A, a single dose of 2,000 mg/kg of the compound of the formula A was administered to each of five male rats and five female rats.
# [9] = PAMPA; format: in vitro ADME
# Procedure: as §1
# [10] = tested on: rats; settings: rat, in vivo
# Procedure: as §2
# [11] = tested on: Sprague Dawley rats; assay: Toxicity after intraperitoneal injection, rats; format: in vivo; settings: intraperitoneal 20, 10 and 1 mg/kg
# Procedure: The Adenosine Derivative of the present invention were assayed for cytotoxicity in animals.
# [12] = 10 mg/kg oral once a day (G3), serum day 14, compared with BDL control group (G2)
structure (smiles),measurement,setting,value
"O[C@@H]1[C@H](O)CS[C@H]1n1cnc2c(NCc3cccc(Cl)c3)nc(Cl)nc21 [Example 2, (2R,3R,4S)-2-(2-chloro-6-(3-chlorobenzylamino)-9H-purin-9-yl)tetrahydrothiophen-3,4-diol]",number of back-mutant colonies versus negative control group,"[1]; all doses of each strain, regardless of the metabolic activation",did not exceed twice the number of back-mutant colonies of the negative control group
same,dose-dependent increase of back-mutant colonies,"[1]; each strain, presence and absence of metabolic activation",no dose-dependent increase was observed
same,"Toxicity, Genotoxicity evaluation",[1]; summary Table 11,Not detected
same,content of liver hydroxyproline decreased,"[2]; 10 mg/kg (G3), liver lysate",39%
same,Hyaluronic acid values reduced,[2]; 10 mg/kg (G3),51%
same,AAR decreased,[2]; [12],21%
same,ALT decreased,[2]; [12],37%
same,AST decreased,[2]; [12],48%
same,Hyaluronic acid values reduced,[2]; 30 mg/kg (G4),47%
same,AST decreased,"[2]; 30 mg/kg oral once a day (G4), serum day 14, compared with BDL control group (G2)",38%
same,Acta2 mRNA levels,"[2]; liver tissue, qRT-PCR, BDL groups G3 (10 mg/kg) and G4 (30 mg/kg)",decreased
same,bioavailability,[3]; read-out: bioavailability Ft,≥ 99.9%
same,half-life,[3]; read-out: half-life T1/2,≥ 3.34 h
same,Plasma stability,[4],> 99.9
same,Kinetic solubility,[5],148.8 µg/mL
same,Equilibrium solubility,[6],2.76 µg/mL
same,% hA2A,[7],17.7%
same,"Toxicity, Single-dose toxicity evaluation",[8],Not detected
same,PAMPA,[9],-4.49
same,death after single dose,[10],no animals died
same,weight gain or feed intake versus control group,[11],No difference
same,death,[11]; observation for 24 hrs,No death was observed
